According to patent publication US5015629A, “Tissue repair” (University of Southern California, priority 1990, dated 1991):

Tested on: bovine endothelial cells
Type: cell-based
Method: In a second example, the effects of angiotensin II on proliferation (mitogenesis) and directional migration (chemotaxis) of endothelial cells were determined. In this regard, it is important to consider that tissue repair requires proper neovascularization, and that new blood vessel growth for wound repair requires endothelial cell replication, migration and orientation. Wound healing factors must be able to stimulate chemotaxis and cell proliferation in addition to initiating new blood vessel growth. The proliferation (mitogenesis) and the directional orientation of such cells (chemotaxis) was studied in vitro using bovine aortal endothelial cells. […] Background radioactivity (noncell-associated) was assessed by removing some filters immediately after the addition of cells prior to cellular migration, and processing these control filters the same way as the test filters. […] The latter was calculated by the following formula: [formula] where R equals the radioactivity in cpm associated with each test filter, B equals the cpm obtained from the background filters, T equals the cpm obtained from a volume (V) of cells in suspension at a known concentration (C) and S equals the cpm obtained from the cell supernate (noncellular, or unbound radioactivity). […]

CC[C@H](C)[C@H](NC(=O)[C@H](Cc1ccc(O)cc1)NC(=O)[C@@H](NC(=O)[C@H](CCCNC(=N)N)NC(=O)[C@@H](N)CC(=O)O)C(C)C)C(=O)N[C@@H](Cc1c[nH]cn1)C(=O)N1CCC[C@H]1C(=O)N[C@@H](Cc1ccccc1)C(=O)O [angiotensin II]
ED50 of chemotaxis: 3 nanogram/ml
